Experimental data reported in patent publication US7566718B2, “Amine-linked pyridyl and phenyl substituted piperazine-piperidines with CXCR3 antagonist activity” (Schering Corporation, priority 2005, dated 2009).

target: T1, human CXCR3 (N-delta 4) (Homo sapiens, UniProt P49682); assay: Human CXCR3 (N-delta 4) scintillation proximity assay (SPA), [125I] IP-10 binding to Ba/F3-hCXCR3 membranes; details: IC50 rating; [125I] IP-10 displacement, human CXCR3; read-out: IC50
T1 construct: CD8 leader (N); Flag tag; expressed in transfected cells; membrane preparation
T1 sequence (P49682 5-368 limits assumed): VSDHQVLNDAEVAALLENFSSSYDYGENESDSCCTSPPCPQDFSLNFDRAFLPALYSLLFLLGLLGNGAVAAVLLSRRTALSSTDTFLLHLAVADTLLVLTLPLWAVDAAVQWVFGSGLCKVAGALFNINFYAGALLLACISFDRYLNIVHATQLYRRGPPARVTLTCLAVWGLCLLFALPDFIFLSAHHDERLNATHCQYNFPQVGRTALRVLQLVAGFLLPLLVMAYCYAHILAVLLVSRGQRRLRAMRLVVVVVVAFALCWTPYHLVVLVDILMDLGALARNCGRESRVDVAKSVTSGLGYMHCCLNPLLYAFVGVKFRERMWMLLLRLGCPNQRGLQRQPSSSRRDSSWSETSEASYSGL
From the text: The inventive compounds can readily be evaluated to determine activity at the CXCR3 receptors by known methods, such as, for example, development of a human CXCR3 (N-delta 4) Binding Assay.
The DNA encoding human CXCR3 was cloned by PCR using human genomic DNA (Promega, Madison, Wis.) as a template. The PCR primers were designed based on the published sequence of human orphan receptor GPR9 (1) with incorporated restriction sites, a Kozak consensus sequence, CD8 leader and Flag tag. The PCR product was subcloned into the mammalian expression vector pME18Sneo, a derivative of the SR-alpha expression vector (designated as pME18Sneo-hCXCR3 (N-delta 4).
IL-3-dependent mouse pro-B cells Ba/F3 were transfected by electroporation in 0.4 ml Dulbecco's PBS containing 4×10^6 cells with 20 μg of pME18Sneo-hCXCR3 (N-delta 4) plasmid DNA. Cells were pulsed at 400 Volts, 100 OHMs, 960 μFd. The transfected cells were under selection with 1 mg/ml G418 (Life Technologies, Gaithersburg, Md.). G418-resistant Ba/F3 clones were screened for CXCR3 expression by specific binding of [^125I] IP-10 (NEN Life Science Products, Boston, Mass.).
Ba/F3 cells expressing human CXCR3 (N-delta 4) were pelleted and resuspended in the lysis buffer containing 10 mM HEPES, pH 7.5 and Complete® protease inhibitors (1 tablet per 100 ml) (Boehringer Mannheim, Indianapolis, Ind.) at a cell density of 20×10^6 cells per ml. After 5 minute incubation on ice, cells were transferred to 4639 cell disruption bomb (Parr Instrument, Moline, Ill.) and applied with 1,500 psi of nitrogen for 30 minutes on ice. Large cellular debris was removed by centrifugation at 1,000×g. Cell membrane in the supernatant was sedimented at 100,000×g. The membrane was resuspended in the lysis buffer supplemented with 10% sucrose and stored at −80° C. Total protein concentration of the membrane was determined by BCA method from Pierce (Rockford, Ill.).
Human CXCR3 (N-Delta 4) Scintillation Proximity Assay (SPA):
For each assay point, 2 μg of membrane was preincubated for 1 hr with 300 μg wheat germ agglutinin (WGA) coated SPA beads (Amersham, Arlington Heights, Ill.) in the binding buffer (50 mM HEPES, 1 mM CaCl2, 5 mM MgCl2, 125 mM NaCl, 0.002% NaN3, 1.0% BSA) at room temperature. The beads were spun down, washed once, resuspended in the binding buffer and transferred to a 96-well Isoplate (Wallac, Gaithersburg, Md.). 25 pM of [^125I] IP-10 with tested compounds in a series of titration were added to start the reaction. After 3 hr reaction at room temperature, the amount of [^125I] IP-10 bound to the SPA beads was determined with a Wallac 1450 Microbeta counter.

| Structure (SMILES) | IC50 [nM] |
| --- | --- |
| CC[C@H]1CN(c2ncc(Nc3c(NC4CC4)c(=O)c3=O)cc2Cl)CCN1C1CCN(Cc2ccc(Cl)cc2[N+](=O)[O-])CC1 [Compound 99] | < 25 |
| CC[C@H]1CN(c2ncc(NC(=O)NC)cc2Cl)CCN1C1CCN(Cc2ccc(Cl)cc2F)CC1 [Compound 182] | < 25 |
| CC[C@H]1CN(c2ncc(NS(C)(=O)=O)cc2Cl)CCN1C1CCN(Cc2ccc(Cl)cc2C(=O)OC)CC1 [Compound 30] | 25 to 100 |
| C[C@H]1CN(c2ncc(NC(=O)c3cccnc3)cc2Cl)CCN1C1CCN(Cc2ccc(Cl)cc2)CC1 [Compound 196] | > 100 |
| CCNC(=O)Nc1cc(Cl)c(N2CCN(C3CCN(Cc4ccc(Cl)cc4)CC3)[C@@H](CC)C2)c(Cl)c1 [Compound 193] | > 100 |
| CC[C@H]1CN(c2ncc(Nc3c(NC4CC4)c(=O)c3=O)cc2Cl)CCN1C1CCN(Cc2ccc(Cl)cc2C#N)CC1 [Compound 97] | < 25 |
| CC[C@H]1CN(c2ncc(NS(N)(=O)=O)cc2Cl)CCN1C1CCN(C(=O)c2ccc(Cl)cc2)CC1 [Compound 33] | 25 to 100 |
| CC[C@H]1CN(c2ncc(NS(C)(=O)=O)cc2Cl)CCN1C1CCN(Cc2ccc(Cl)cc2-c2nnn[nH]2)CC1 [Compound 36] | 25 to 100 |
| CC[C@H]1CN(c2ncc(Nc3c(NC4CC4)c(=O)c3=O)cc2Cl)CCN1C1CCN(Cc2ccc(OC(F)F)cc2)CC1 [Compound 74] | < 25 |
| CC[C@H]1CN(c2nc(N)c(N)nc2Cl)CCN1C1CCN(Cc2ccc(Cl)cc2F)CC1 [Compound 219] | > 100 |
| CC[C@H]1CN(c2ncc(NC3=NS(=O)(=O)N=C3N3CCC3)cc2Cl)CCN1C1CCN(Cc2ccc(Cl)cc2F)CC1 [Compound 254] | < 25 |
| COC1CCCC(CN2CCC(N3C[C@H](C)N(c4ncc(Nc5c(NCC(F)(F)F)c(=O)c5=O)cc4Cl)C[C@H]3C)CC2)O1 (stereo partly drawn) [Compound 151] | > 100 |
| CC[C@H]1CN(c2ncc(Nc3c(N4CCOCC4)c(=O)c3=O)cc2Cl)CCN1C1CCN(Cc2ccc(Cl)cc2F)CC1 [Compound 96] | < 25 |
| CC[C@H]1CN(c2ncc(NC(=O)C(C)C)cc2Cl)CCN1C1CCN(Cc2ccc(Cl)cc2F)CC1 [Compound 178] | < 25 |
| COc1ccc(CN2CCC(N3C[C@H](C)N(c4ncc(Nc5c(NCC(F)(F)F)c(=O)c5=O)cc4Cl)C[C@H]3C)CC2)cc1 [Compound 117] | > 100 |
| CC[C@H]1CN(c2ncc(NS(C)(=O)=O)cc2Cl)CCN1C1CCN(C(=O)c2ccc(OC(F)(F)F)cc2)CC1 [Compound 68] | > 100 |

| Structure (SMILES) | IC50 [nM] |
| --- | --- |
| C[C@@H]1CN(c2ncc(Nc3c(NCC(F)(F)F)c(=O)c3=O)cc2Cl)[C@@H](C)CN1C1CCN(Cc2cccc(Cl)c2Cl)CC1 [Compound 158] | > 100 |
| CC[C@H]1CN(c2ncc(Nc3c(NC4CC4)c(=O)c3=O)cc2Cl)CCN1C1CCN([C@H](C(=O)NC)c2ccc(Cl)cc2)CC1 [Compound 149] | > 100 |
| CC[C@H]1CN(c2ncc(N/C(=N/C#N)NC3CC3)cc2Cl)CCN1C1CCN(Cc2ccc(Cl)cc2F)CC1 [Compound 209] | 25 to 100 |
| CCNC(=O)Nc1cnc(N2CCN(C3CCN(Cc4ccc(Cl)cc4)CC3)[C@@H](C)C2)c(Cl)c1 [Compound 190] | 25 to 100 |
| CC[C@H]1CN(c2ncc(NS(=O)(=O)c3ccc(Cl)cc3)cc2Cl)CCN1C1CCN(Cc2ccc(Cl)cc2F)CC1 [Compound 46] | > 100 |
| CC[C@H]1CN(c2ncc(NC(=O)Oc3ccccc3)cc2Cl)CCN1C1CCN(Cc2ccc(Cl)cc2F)CC1 [Compound 189] | 25 to 100 |
| C[C@@H]1CN(C2CCN(Cc3ccc(Cl)cc3)CC2)[C@@H](C)CN1c1ncc(NC(=O)NCC(F)(F)F)cc1Cl [Compound 197] | > 100 |
| CC[C@H]1CN(c2ncc([N+](=O)[O-])cc2Cl)CCN1C1CCN(Cc2ccc(Cl)cc2-c2nnc[nH]2)CC1 [Compound 215] | > 100 |
| CC[C@H]1CN(c2ncc(Nc3c(NCC(=O)OC(C)(C)C)c(=O)c3=O)cc2Cl)CCN1C1CCN([C@@H](CO)c2ccc(Cl)cc2)CC1 [Compound 139] | > 100 |
| C[C@@H]1CN(c2ncc(Nc3c(NCC(F)(F)F)c(=O)c3=O)cc2Cl)[C@@H](C)CN1C1CCN(Cc2ccc(Cl)c(Cl)c2)CC1 [Compound 124] | > 100 |
| CC[C@H]1CN(c2ncc(NC(=O)NC3CC3)cc2Cl)CCN1C1CCN(Cc2ccc(Cl)cc2F)CC1 [Compound 185] | < 25 |
| CC[C@H]1CN(c2ncc(NC3=NS(=O)(=O)N=C3NCC(F)(F)F)cc2Cl)CCN1C1CCN(Cc2ccc(Cl)cc2F)CC1 [Compound 252] | < 25 |
| C[C@@H]1CN(c2ncc(Nc3c(NCC(F)(F)F)c(=O)c3=O)cc2Cl)[C@@H](C)CN1C1CCN(Cc2ccc(C#N)cc2)CC1 [Compound 114] | > 100 |
| C[C@@H]1CN(c2ncc(Nc3c(NCC(F)(F)F)c(=O)c3=O)cc2Cl)[C@@H](C)CN1C1CCN(Cc2cccc(C(F)(F)F)c2)CC1 [Compound 157] | > 100 |
| CC[C@H]1CN(c2ccc([N+](=O)[O-])cc2Cl)CCN1C1CCN(Cc2ccc(Cl)cc2)CC1 [Compound 216] | > 100 |

Continued, values first:

| IC50 [nM] | Structure (SMILES) |
| --- | --- |
| < 25 | CC[C@H]1CN(c2ncc(NC3=NS(=O)(=O)N=C3NC3CC3)cc2Cl)CCN1C1CCN(Cc2ccc(Cl)cc2-c2nnc[nH]2)CC1 [Compound 250] |
| > 100 | CC[C@H]1CN(c2ncc(NC3=NS(=O)(=O)N=C3NC3CC3)cc2Cl)CCN1C1CCN(Cc2ccc(Cl)cc2-c2nnc(Br)[nH]2)CC1 [Compound 270] |
| < 25 | CC[C@H]1CN(c2ncc(NS(C)(=O)=O)cc2Cl)CCN1C1CCN(C(C(N)=O)c2ccc(Cl)cc2)CC1 (stereo partly drawn) [Compound 12] |
| > 100 | C[C@@H]1CN(c2ncc(Nc3c(NCC(F)(F)F)c(=O)c3=O)cc2Cl)[C@@H](C)CN1C1CCN(Cc2ccccc2O)CC1 [Compound 153] |
| > 100 | CC1CCCC(N2CCC(N3C[C@H](C)N(c4ncc(Nc5c(NCC(F)(F)F)c(=O)c5=O)cc4Cl)C[C@H]3C)CC2)C1 (stereo partly drawn) [Compound 176] |
| > 100 | CC[C@H]1CN(c2ncc(-n3cccc3)cc2Cl)CCN1C1CCN(Cc2ccc(Cl)cc2F)CC1 [Compound 222] |
| > 100 | C[C@@H]1CN(c2ncc(Nc3c(NCC(F)(F)F)c(=O)c3=O)cc2Cl)[C@@H](C)CN1C1CCN(Cc2ccc(Br)cc2)CC1 [Compound 125] |
| < 25 | CC[C@H]1CN(c2ncc(NC3=NS(=O)(=O)N=C3NC(C)C)cc2Cl)CCN1C1CCN(Cc2ccc(Cl)cc2F)CC1 [Compound 243] |
| < 25 | CC[C@H]1CN(c2ncc(NS(C)(=O)=O)cc2Cl)CCN1C1CCN(Cc2ccc(Cl)cc2C#N)CC1 [Compound 23] |
| 25 to 100 | CC[C@H]1CN(c2ncc(NS(C)(=O)=O)cc2Cl)CCN1C1CCN(Cc2ccc(F)cc2)CC1 [Compound 25] |
| 25 to 100 | CC[C@H]1CN(c2ncc(NC3=NS(=O)(=O)N=C3N)cc2Cl)CCN1C1CCN(Cc2ccc(OC(F)(F)F)cc2)CC1 [Compound 262] |
| > 100 | Cc1cc(Nc2c(NCC(F)(F)F)c(=O)c2=O)cnc1N1C[C@@H](C)N(C2CCN(C(=O)c3ccc(Cl)cc3)CC2)C[C@@H]1C [Compound 141] |
| 25 to 100 | CC[C@H]1CN(c2ncc(Nc3c(N[C@@H](c4ccc(C)o4)C(C)(C)C)c(=O)c3=O)cc2Cl)CCN1C1CCN([C@H](CO)c2ccc(Cl)cc2)CC1 [Compound 109] |
| > 100 | CC[C@H]1CN(c2ncc(NC3=NS(=O)(=O)N=C3Nc3ccccc3O)cc2Cl)CCN1C1CCN(Cc2ccc(Cl)cc2F)CC1 [Compound 277] |
| > 100 | C[C@H]1CN(c2ncc(NN)cc2Cl)CCN1C1CCN(Cc2ccc(Cl)cc2F)CC1 [Compound 231] |
| > 100 | CC[C@H]1CN(c2ncc(-n3ccnc3)cc2Cl)CCN1C1CCN([C@H](C(=O)OC)c2ccc(Cl)cc2)CC1 [Compound 229] |
| > 100 | CC[C@H]1CN(c2ncc(NC3=NS(=O)(=O)N=C3NCCN)cc2Cl)CCN1C1CCN(Cc2ccc(Cl)cc2F)CC1 [Compound 279] |
